In EP0429333B1, “Process for producing oxazopyrroloquinolines, novel oxazopyrroloquinolines, and use of oxazopyrroloquinolines” (priority 1989, dated 1991):

Assays:
[1] = target: aldose reductase of kidney (Canis lupus familiaris, UniProt A0A8I3P2L6); experiment: Inhibitory effect on aldose reductase of kidney; assay type: biochemical, dog; settings: read-out: Degree of inhibition for aldose reductase (%)
Protocol: Medulla of kidney of dog was homogenized with 10mM phosphoric acid buffer (pH 7.0) containing 2mM dithiothreitol in an amount of four times the volume of kidney medulla and subjected to centrifugation. The supernatant liquid was purified by affinity chromatography, gel filtration and chromatofocusing to obtain electrophoretically homogeneous aldose reductase. 0.05 ml of 3mM NADPH, 0.1 ml of DL-glyceraldehyde and 0.04 ml of distilled water were added to 0.8 ml of 0.1M phosphoric acid buffer (pH 6.2) and left to stand at 25°C for 3 minutes. Then, 0.01 ml of the aldose reductase solution was added thereto to start reaction and decreasing of absorbance of 340 nm was measured at 25°C with time. Amount of enzyme which consumes 1 µmole of NADPH for 1 minute was taken as 1 unit.

kidney = experiment: Toxicity to kidney determined by blood examination; assay type: in vivo, mice; settings: serum
Protocol: After one day from administration, the mice were fasted (only water was given) and after lapse of 18 hours, blood was collected and serum was obtained therefrom. Glucose, urea nitrogen and creatinine in the serum were examined using FUJI Dry Chemslide (manufactured by Fuji Photo Film Co., Ltd.). […]
Thereafter, the mice were fasted (with giving only water) and after lapse of 18 hours, blood was collected and serum was obtained therefrom. Contents of glucose, urea nitrogen and creatinine in serum were obtained using FUJI Dry Chemslide. The results were shown by average value for eight mice.

T cell = experiment: Test on T cell blast transformation reaction (2), compound added to spleen cell culture; assay type: cell-based, C3H/He mice; settings: for Relative activity (%): Concanavalin A 1.0 µg/ml, without compound = 100
Protocol: Cells of spleen were obtained in the same manner as in Example 38 except that OPQ was not administered using five C3H/He mice (male, 7 weeks old, average body weight of 20 g, supplied by Japan Charles Liver Co.).
Then, the cells were suspended in RPMI medium at 4 x 10^6 cells/ml and the suspension was put in a flat bottom microplate of 96 holes. Culture was carried out in the air containing 5 % of CO2 at 37°C using 1.0 µg/ml of concanavalin A as mitogen with addition of 0.5 or 2.0 µg/ml of OPQ. After 63 hours from starting of culture, ^3H-thymidine was added at 2.5 µCi/ml and culture was carried out for further 9 hours. Thereafter, cells were gathered on a glass fiber filter by cell harvester and ^3H on the filter was measured by a liquid scintillation counter.
As control, same four cultures were conducted under respective conditions without adding concanavalin A or OPQ. Values in the table are average values of intake amount (cpm) of ^3H in culture under four same conditions. Activity acceleration effect of OPQ was not recognized when concanavalin A was not added, but activity acceleration effect of OPQ was recognized when concanavalin A was added.
In Examples 36 - 40, macrophage activity was examined according to chemotaxis of peritoneal macrophage (literature 1) and activity of T cell and that of B cell were examined according to blast transformation reaction using concanavalin A and lipopolysaccharide, (LPS) as mitogen (literature 2). Literature 1: "Function of Macrophage and Method of Measurement of Function", pages 61-65 1985), edited by Educational Committee of Japan Bacteriological Society and published from Saikon Shuppan Co.) Literature 2: "New Method of Searching of Function of Lymphocytes", pages 350-355 (1987) edited by Junichi Yada and Michio Fujiwara and published from Chugai Igaku Co.

[2] = system: carbon tetrachloride (CCl4)-induced liver diseases; experiment: Pharmacological activity on carbon tetrachloride-induced liver diseases; assay type: in vivo, SD rats; settings: CCl4 1 ml/kg rat; for GPT: Table 26: CCl4 only 1521, no administration 24; for Total bilirubin: Table 26: CCl4 only 1.5, no administration 0.9; for GOT: Table 26: CCl4 only 3266, no administration 140
Protocol: Twentyfive SD rats (male, 7 weeks old, body weight: about 220 g; supplied by Japan Charles River Co.) were divided to five groups (A-E) each consisting of five rats.
All rats were fasted for 16 hours and 1.1 ml of solutions containing 0.4 mg/ml, 1.0 mg/ml and 2.0 mg/ml of OPQ were intraperitoneally administered to the rats of groups C, D and E, respectively and furthermore, after 40 minutes, OPQ in the same dosage as above was intraperitoneally administered, respectively. In these cases, OPQ was used as a solution in physiological saline. To the rats of group B was intraperitoneally administered 1.1 ml of physiological saline in place of the OPQ solution.
Furthermore, after 20 minutes, 2.2 ml of 10 % carbon tetrachloride solution (in olive oil) was administered to stomach of the rats of groups B-E. Neither OPQ nor carbon tetrachloride was administered to the rats of group A.
After 24 hours from administration of carbon tetrachloride, blood was collected from abdominal aorta and serum was obtained by centrifugal separation.
GPT, GOT and amount of total bilirubin were measured by clinical examination reagent (trademark: FUJI Dry Chemslide manufactured by Fuji Photo Film Co., Ltd.). The results are shown in Table 26 by average value of five rats.

[3] = 2 mg/kg rat twice intraperitoneally
[4] = 5 mg/kg rat twice intraperitoneally
[5] = 10 mg/kg rat twice intraperitoneally

SMILES: O=C(O)c1cc(C(=O)O)c2c(n1)c1ncoc1c1cc(C(=O)O)[nH]c12 [OPQ, oxazopyrroloquinoline]
- inhibition at 0.1 µM ([1]; concentration 1x10^-7 M): 51.9%
- inhibition at 0.2 µM ([1]; concentration 2x10^-7 M): 62.1%
- inhibition at 0.05 µM ([1]; concentration 5x10^-8 M): 39.3%
- Creatinine (kidney; 40 mg/kg mouse intraperitoneally, Table 2, no administration 0.8): 0.7 mg/dL
- Urea nitrogen (kidney; 40 mg/kg mouse intraperitoneally, Table 2, no administration 24): 25 mg/dL
- Glucose (kidney; 40 mg/kg mouse intraperitoneally, Table 2, no administration 78): 90 mg/dL
- Creatinine (kidney; 80 mg/kg mouse intraperitoneally, Table 2, no administration 0.8): 0.8 mg/dL
- Urea nitrogen (kidney; 80 mg/kg mouse intraperitoneally, Table 2, no administration 24): 23 mg/dL
- Glucose (kidney; 80 mg/kg mouse intraperitoneally, Table 2, no administration 78): 86 mg/dL
- Creatinine (kidney; 150 mg/kg mouse intraperitoneally, Table 3, no administration 0.7): 0.8 mg/dL
- Urea nitrogen (kidney; 150 mg/kg mouse intraperitoneally, Table 3, no administration 28): 32 mg/dL
- Glucose (kidney; 150 mg/kg mouse intraperitoneally, Table 3, no administration 105): 106 mg/dL
- Creatinine (kidney; 160 mg/kg mouse intraperitoneally, Table 2, no administration 0.8): 0.7 mg/dL
- Urea nitrogen (kidney; 160 mg/kg mouse intraperitoneally, Table 2, no administration 24): 27 mg/dL
- Glucose (kidney; 160 mg/kg mouse intraperitoneally, Table 2, no administration 78): 90 mg/dL
- Creatinine (kidney; 200 mg/kg mouse intraperitoneally, Table 2, no administration 0.8): 0.8 mg/dL
- Urea nitrogen (kidney; 200 mg/kg mouse intraperitoneally, Table 2, no administration 24): 28 mg/dL
- Glucose (kidney; 200 mg/kg mouse intraperitoneally, Table 2, no administration 78): 85 mg/dL
- Creatinine (kidney; 300 mg/kg mouse intraperitoneally, Table 3, no administration 0.7): 0.8 mg/dL
- Urea nitrogen (kidney; 300 mg/kg mouse intraperitoneally, Table 3, no administration 28): 29 mg/dL
- Glucose (kidney; 300 mg/kg mouse intraperitoneally, Table 3, no administration 105): 80 mg/dL
- Creatinine (kidney; 400 mg/kg mouse intraperitoneally, Table 3, no administration 0.7): 0.8 mg/dL
- Urea nitrogen (kidney; 400 mg/kg mouse intraperitoneally, Table 3, no administration 28): 30 mg/dL
- Glucose (kidney; 400 mg/kg mouse intraperitoneally, Table 3, no administration 105): 94 mg/dL
- Creatinine (kidney; 600 mg/kg mouse intraperitoneally, Table 3, no administration 0.7): 0.8 mg/dL
- Urea nitrogen (kidney; 600 mg/kg mouse intraperitoneally, Table 3, no administration 28): 34 mg/dL
- Glucose (kidney; 600 mg/kg mouse intraperitoneally, Table 3, no administration 105): 74 mg/dL
- Relative activity (%) (T cell; 0.5 µg/ml added to culture): 146%
- intake amount (cpm) of ^3H (T cell; 0.5 µg/ml added to culture, concanavalin 0 µg/ml, without compound 2077): 1946 cpm
- intake amount (cpm) of ^3H (T cell; 0.5 µg/ml added to culture, concanavalin 1.0 µg/ml, without compound 89091): 130775 cpm
- Relative activity (%) (T cell; 2.0 µg/ml added to culture): 130%
- intake amount (cpm) of ^3H (T cell; 2.0 µg/ml added to culture, concanavalin 0 µg/ml, without compound 2077): 2031 cpm
- intake amount (cpm) of ^3H (T cell; 2.0 µg/ml added to culture, concanavalin 1.0 µg/ml, without compound 89091): 116093 cpm
- GPT ([2]; 2 mg/kg rat twice intraperitoneally, serum after 24 hours): 1057 U/l
- Total bilirubin [2, 3]: 1.2 mg/dL
- GOT [2, 3]: 2402 U/l
- Total bilirubin [2, 4]: 1.2 mg/dL
- GPT [2, 4]: 553 U/l
- GOT [2, 4]: 1892 U/l
- Total bilirubin [2, 5]: 1.1 mg/dL
- GPT [2, 5]: 650 U/l
- GOT [2, 5]: 1907 U/l
